Test [1] has as its system 45Ca2+ uptake [45Ca2+取り込み]. Briefly: 45Ca2+ uptake inhibition (veratrine-stimulated). The format is biochemical. The settings on record: 10 μM; rat cerebral cortex crude synaptosomes; veratrine 30 μM; 37℃, 10 min.
The subject of test [2] is norepinephrine (NE) uptake [ノルエピネフリン(NE)の取り込み]. Kind of test: norepinephrine (NE) uptake inhibition. The settings on record: rat cerebral cortex, 3H-NE as substrate. Type of test: biochemical.
Test [3] concerns serotonin (5-HT) uptake [セロトニン(5−HT)の取り込み]. Kind of test: serotonin (5-HT) uptake inhibition. The format is biochemical. Particulars: rat whole brain preparation, 3H-5-HT 10 nM, 37℃, 5 min.
Test [4] has as its target T1, type B monoamine oxidase (MAO-B) [B型モノアミン酸化酵素(MAO−B)] (Rattus norvegicus, UniProt P19643).
T1 sequence (P19643 1-520): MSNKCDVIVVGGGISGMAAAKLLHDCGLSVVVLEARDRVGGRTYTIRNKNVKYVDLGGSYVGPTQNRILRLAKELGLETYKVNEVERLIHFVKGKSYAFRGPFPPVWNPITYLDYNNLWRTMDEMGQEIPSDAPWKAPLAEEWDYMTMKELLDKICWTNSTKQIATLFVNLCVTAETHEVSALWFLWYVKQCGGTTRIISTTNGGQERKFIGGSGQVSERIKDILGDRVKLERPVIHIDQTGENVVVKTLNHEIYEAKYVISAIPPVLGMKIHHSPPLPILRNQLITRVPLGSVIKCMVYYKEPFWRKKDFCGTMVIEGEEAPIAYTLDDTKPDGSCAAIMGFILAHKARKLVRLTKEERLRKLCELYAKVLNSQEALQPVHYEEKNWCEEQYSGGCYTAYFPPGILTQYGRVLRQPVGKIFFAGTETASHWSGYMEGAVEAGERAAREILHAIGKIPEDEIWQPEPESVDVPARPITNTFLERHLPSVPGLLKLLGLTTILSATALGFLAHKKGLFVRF
Briefly: biochemical.

The mark [5] stands for this setting: MAO-B, rat whole brain homogenate, 14C-phenylethylamine 10 μM, 37℃, 5 min, read-out: IC50.

Like-named read-outs stand apart in the source and are kept apart here.

The term IC50 denotes the concentration needed to halve the response being measured.

Regarding `COc1ccc2c(c1)CCC1(CCCCN1CCCc1ccccc1)C2` (centres unmarked) [実施例5−9, 3,4−ジヒドロ−6−メトキシ−1′−(3−フェニルプロピル)スピロ〔ナフタレン−2(1H),2′−ピペリジン〕 塩酸塩], the “% inhibition rate (45Ca uptake)” value in test [1] is on record as 92%.

On to `COc1ccc2c(c1)CCC1(CCCCN1CCOc1ccccc1)C2` (centres unmarked) [実施例5−10, 3,4−ジヒドロ−6−メトキシ−1′−(2−フェノキシエチル)スピロ〔ナフタレン−2(1H),2′−ピペリジン〕 塩酸塩], for which the “% inhibition rate (45Ca uptake)” value in test [1] turned out to be 88%. The IC50 in test [2] amounted to 0.83 µM; in test [3] it was 0.0096 µM.

As for `COc1ccc2c(c1)CCC1(CCCCN1CCCCN1C(=O)c3ccccc3C1=O)C2` (centres unmarked) [実施例5−11, 3,4−ジヒドロ−6−メトキシ−1′−(4−フタルイミドブチル)スピロ〔ナフタレン−2(1H),2′−ピペリジン〕 塩酸塩], the IC50 in test [2] turned out to be 0.5 µM; in test [3] it was 0.0045 µM.

As for `COc1ccc2c(c1)CCC1(CCCCN1CCCC1CCN(Cc3ccccc3)CC1)C2` (centres unmarked) [実施例5−14, 3,4−ジヒドロ−6−メトキシ−1′−〔3−(1−フェニルメチルピペリジン−4−イル)プロピル〕スピロ〔ナフタレン−2(1H),2′−ピペリジン〕 2塩酸塩], the “% inhibition rate (45Ca uptake)” value in test [1] was found to be 74%. The IC50 in test [2] was 0.18 µM; in test [3], 0.011 µM.

With `COc1cccc(N2CCN(CCN3CCCCC34CCc3cc(OC)ccc3C4)CC2)c1` (centres unmarked) [実施例7−1, 3,4−ジヒドロ−6−メトキシ−1’−〔2−(4−(3−メトキシフェニル)ピペラジン−1−イル)エチル〕スピロ〔ナフタレン−2(1H),2’−ピペリジン〕 2塩酸塩], the “% inhibition rate (45Ca uptake)” value in test [1] came out at 90%. The IC50 in test [2] came to 4.77 µM; in test [3] it was 0.022 µM.

`COc1ccc2c(c1)CCC1(CCCCN1CCN1CCN(c3ccccc3Cl)CC1)C2` (centres unmarked) [実施例7−3, 1′−〔2−(4−(2−クロロフェニル)ピペラジン−1−イル)エチル〕−3,4−ジヒドロ−6−メトキシスピロ〔ナフタレン−2(1H),2′−ピペリジン〕 2塩酸塩]: the “% inhibition rate (45Ca uptake)” value in test [1] is given as 95%.

On to `COc1ccc2c(c1)CCC1(CCCCN1CCN1CCN(c3ccc(F)cc3)CC1)C2` (centres unmarked) [実施例7−5, 1′−〔2−(4−(4−フルオロフェニル)ピペラジン−1−イル)エチル〕−3,4−ジヒドロ−6−メトキシスピロ〔ナフタレン−2(1H),2′−ピペリジン〕 2塩酸塩], for which the “% inhibition rate (45Ca uptake)” value in test [1] is reported as 87%. The IC50 in test [2] turned out to be 3.35 µM; in test [3], 0.03 µM.

`COc1ccc2c(c1)CCC1(CCCCN1CCN1CCN(c3cccc(C(F)(F)F)c3)CC1)C2` (centres unmarked) [実施例7−6, 1′−〔2−(4−(3−トリフルオロメチルフェニル)ピペラジン−1−イル)エチル〕−3,4−ジヒドロ−6−メトキシスピロ〔ナフタレン−2(1H),2′−ピペリジン〕 2塩酸塩]: the “% inhibition rate (45Ca uptake)” value in test [1] is given as 106%.

Take `COc1ccc2c(c1)CCC1(CCCCN1CCN1CCC(c3ccccc3)CC1)C2` (centres unmarked) [実施例7−9, 3,4−ジヒドロ−6−メトキシ−1′−〔2−(4−フェニルピペリジン−1−イル)エチル〕スピロ〔ナフタレン−2(1H),2′−ピペリジン〕 2塩酸塩]: the “% inhibition rate (45Ca uptake)” value in test [1] is recorded as 109%.

For `CCCN1CCCCC12CCc1cc(OCc3ccccc3)ccc1C2` (centres unmarked) [実施例9−1, 3,4−ジヒドロ−6−フェニルメトキシ−1’−プロピルスピロ〔ナフタレン−2(1H),2’−ピペリジン〕 塩酸塩], in test [4] (setting [5]), the IC50 was determined as 0.28 µM.

`CCCN1CCCCC12CCc1cc(OCc3ccccc3Cl)ccc1C2` (centres unmarked) [実施例9−6, 6−(2−クロロフェニルメトキシ)−3,4−ジヒドロ−1′−プロピルスピロ〔ナフタレン−2(1H),2′−ピペリジン〕 塩酸塩]: the IC50 in test [4] (setting [5]) stood at 2.51 µM.

For `CCCN1CCCCC12CCc1cc(OCc3cccc(Cl)c3)ccc1C2` (centres unmarked) [実施例9−7, 6−(3−クロロフェニルメトキシ)−3,4−ジヒドロ−1′−プロピルスピロ〔ナフタレン−2(1H),2′−ピペリジン〕 塩酸塩], the 50% inhibitory concentration (IC50) in test [2] was 0.059 µM; in test [3] it was 0.7 µM; in test [4] (setting [5]) it was 1.63 µM.

Consider `CCCN1CCCCC12CCc1cc(OCc3ccc(Cl)cc3)ccc1C2` (centres unmarked) [実施例9−8, 6−(4−クロロフェニルメトキシ)−3,4−ジヒドロ−1′−プロピルスピロ〔ナフタレン−2(1H),2′−ピペリジン〕 塩酸塩], for which the IC50 in test [2] was determined as 0.035 µM; in test [3], 0.18 µM.

As for `CCCN1CCCCC12CCc1cc(OCc3cccc(C#N)c3)ccc1C2` (centres unmarked) [実施例9−9, 6−(3−シアノフェニルメトキシ)−3,4−ジヒドロ−1′−プロピルスピロ〔ナフタレン−2(1H),2′−ピペリジン〕 塩酸塩], the IC50 was 0.062 µM in test [2] and 0.28 µM in test [3].

As for `CCCN1CCCCC12CCc1cc(OCCc3ccccc3)ccc1C2` (centres unmarked) [実施例9−16, 3,4−ジヒドロ−6−(2−フェニルエトキシ)−1′−プロピルスピロ〔ナフタレン−2(1H),2′−ピペリジン〕 2塩酸塩], the IC50 in test [4] (setting [5]) is 0.59 µM.

Regarding `CCCN1CCCCC12CCc1cc(OCc3ccccc3C)ccc1C2` (centres unmarked) [実施例9−18, 3,4−ジヒドロ−6−(2−メチルフェニルメトキシ)−1′−プロピルスピロ〔ナフタレン−2(1H),2′−ピペリジン〕 塩酸塩], the IC50 in test [4] (setting [5]) stood at 1.49 µM.

For the compound `CCCN1CCCCC12CCc1cc(OCc3ccccc3F)ccc1C2` (centres unmarked) [実施例9−19, 6−(2−フルオロフェニルメトキシ)−3,4−ジヒドロ−1′−プロピルスピロ〔ナフタレン−2(1H),2′−ピペリジン〕 塩酸塩], the IC50 worked out at 0.09 µM in test [2], 0.8 µM in test [3] and 0.89 µM in test [4] (setting [5]).

For `CCCN1CCCCC12CCc1cc(OCc3ccccc3C#N)ccc1C2` (centres unmarked) [実施例9−20, 6−(2−シアノフェニルメトキシ)−3,4−ジヒドロ−1′−プロピルスピロ〔ナフタレン−2(1H),2′−ピペリジン〕 塩酸塩], the IC50 in test [2] was determined as 0.054 µM; in test [3], 0.32 µM.

As for `CCCN1CCCCC12CCc1cc(OCc3ccc(F)cc3)ccc1C2` (centres unmarked) [実施例9−21, 6−(4−フルオロフェニルメトキシ)−3,4−ジヒドロ−1′−プロピルスピロ〔ナフタレン−2(1H),2′−ピペリジン〕 塩酸塩], the IC50 was 0.097 µM in test [2], 0.34 µM in test [3] and 0.68 µM in test [4] (setting [5]).

Consider `CCCN1CCCCC12CCc1cc(OCc3ccc(Cl)cc3Cl)ccc1C2` (centres unmarked) [実施例9−22, 6−(2,4−ジクロロフェニルメトキシ)−3,4−ジヒドロ−1′−プロピルスピロ〔ナフタレン−2(1H),2′−ピペリジン〕 塩酸塩], for which the figures for the IC50 in test [2] and in test [3] were 0.067 µM and 0.19 µM, respectively.

Regarding `CCCN1CCCCC12CCc1cc(OCc3ccccc3OC)ccc1C2` (centres unmarked) [実施例9−23, 3,4−ジヒドロ−6−(2−メトキシフェニルメトキシ)−1′−プロピルスピロ〔ナフタレン−2(1H),2′−ピペリジン〕 塩酸塩], in test [4] (setting [5]), the IC50 came out at 2.83 µM.

Take `NC(=O)CN1CCCCC12CCc1cc(OCc3ccc(F)cc3)ccc1C2` (centres unmarked) [実施例9−32, {6−(4−フルオロフェニルメトキシ−3,4−ジヒドロスピロ〔ナフタレン−2(1H),2′−ピペリジン〕}−1′−イルアセトアミド 塩酸塩]: the IC50 in test [4] (setting [5]) was determined as 0.53 µM.

In test [4], `CCCN1CCCCC12CCc1cc(OCc3ccsc3)ccc1C2` (centres unmarked) [実施例9−45, 3,4−ジヒドロ−1′−プロピル−6−(3−チエニルメトキシ)スピロ〔ナフタレン−2(1H),2′−ピペリジン〕 塩酸塩] gave an IC50 of 0.066 µM.

Consider `COc1ccc2c(c1)CC[C@@]1(CCCCN1CCN1CCN(c3cccc(C(F)(F)F)c3)CC1)C2` [実施例30−2, (S)−(−)−1’−〔2−4−(3−トリフルオロメチルフェニル)ピペラジン−1−イル)エチル〕−3,4−ジヒドロ−6−メトキシスピロ〔ナフタレン−2(1H),2’−ピペリジン〕 2塩酸塩], for which the values for the IC50 in test [2] and in test [3] were 0.28 µM and 0.0095 µM, respectively.

Source of the values: patent publication JPH07291935A, “スピロ化合物、その製造法および剤” (Takeda Chemical Industries Ltd, priority 1994, dated 1995).
